Reference: ChEMBL document CHEMBL3244200, “8-Carboxy-6-sulfamyldibenz[b,f][1,4]oxazepines and -thiazepines as potential high-ceiling diuretics” (1978)
Active and inactive are the calls of the source. The rule behind the calls is not given here.

Tests used:
Rattus norvegicus [1] = test: High-ceiling diuretic activity in Wistar rat assessed as drug to urea ratio to cause diuresis at 50 mg/kg, po measured for 5 hrs (reference value: 0.44 +/- 0.05 no unit); type: functional, Urine
Rattus norvegicus [2] = test: High-ceiling diuretic activity in Wistar rat assessed as drug to urea ratio to increase Na+ level in urine at 50 mg/kg, po measured for 5 hrs by flame photometric analysis (reference value: 0.47 +/- 0.07 no unit); type: functional
Rattus norvegicus [3] = test: High-ceiling diuretic activity in Wistar rat assessed as drug to urea ratio to increase K+ level in urine at 50 mg/kg, po measured for 5 hrs by flame photometric analysis (reference value: 0.57 +/- 0.08 no unit); type: functional
Canis familiaris = test: High-ceiling diuretic activity in Beagle dog at 20 mg/kg, po; type: functional, organism-based; set-up: dose 20 mg/kg; conditions: Canis lupus familiaris, Urine

| SMILES | Ratio (Rattus norvegicus [1]) | Ratio (Rattus norvegicus [2]) | Ratio (Rattus norvegicus [3]) | Activity (Canis familiaris) |
| --- | --- | --- | --- | --- |
| NS(=O)(=O)c1cc(C(=O)O)cc2c1Oc1ccccc1CN2 | 0.47 | 1 | 0.9 |  |
| CCCCNc1cc(C(=O)O)cc(S(N)(=O)=O)c1Oc1ccccc1 [BUMETANIDE] | 2.6 | 4.66 | 0.97 |  |
| NS(=O)(=O)c1cc(C(=O)O)cc2c1Sc1ccccc1CN2 | 0.07 | 0.13 | 0.05 | inactive |
| COC(=O)c1cc2c(c(S(N)(=O)=O)c1)Oc1ccccc1C(=O)N2 | 0.79 | 1.24 | 0.63 |  |
| NS(=O)(=O)c1cc(C(=O)O)cc2c1Sc1ccccc1C(=O)N2 | 0.56 | 0.71 | 0.62 | inactive |
| COC(=O)c1cc2c(c(S(N)(=O)=O)c1)Sc1ccccc1C(=O)N2 | 0.25 | 0.42 | 0.41 |  |
